From patent US20100210633A1, “CARBOXAMIDE COMPOUNDS AND THEIR USE” (EPIX Delaware, Inc., priority 2006, published 2010)

Target: CCR2 (Homo sapiens, UniProt P41597)
Assay: calcium flux assay
Assay type: cell-based
Details: read-out: IC50 Ca++ flux
Source text: The capacity of the compounds of the invention to antagonize CCR2 function can be determined using a suitable screen (e.g., high throughput assay). For example, an agent can be tested in an extracellular acidification assay, calcium flux assay, ligand binding assay or chemotaxis assay (see, for example, Hesselgesser et al., J Biol. Chem. 273(25):15687-15692 (1998), WO 00/05265 and WO 98/02151).

CCR2, sequence (P41597 whole entry): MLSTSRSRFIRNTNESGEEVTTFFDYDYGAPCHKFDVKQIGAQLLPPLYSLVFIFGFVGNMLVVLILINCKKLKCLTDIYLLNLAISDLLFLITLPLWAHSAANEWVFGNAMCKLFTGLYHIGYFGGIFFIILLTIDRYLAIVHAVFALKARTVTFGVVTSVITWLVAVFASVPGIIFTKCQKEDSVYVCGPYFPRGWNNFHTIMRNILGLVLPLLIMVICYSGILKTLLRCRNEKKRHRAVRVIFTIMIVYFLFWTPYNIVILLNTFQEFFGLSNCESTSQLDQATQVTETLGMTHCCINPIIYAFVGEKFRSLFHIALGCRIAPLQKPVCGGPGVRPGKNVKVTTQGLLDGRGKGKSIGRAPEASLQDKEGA

Row | Structure (SMILES) | IC50 [nM]
1 | CC(C)CC1(C(=O)N[C@H](C)c2cc(C(F)(F)F)cc(C(F)(F)F)c2)CCN(Cc2ccc3c(c2)OCO3)CC1 [Example 44, (R)-1-(Benzo[d][1,3]dioxol-5-ylmethyl)-N-(1-(3,5-bis(trifluoromethyl)phenyl)ethyl)-4-isobutylpiperidine-4-carboxamide] | > 1000
2 | N#Cc1ccc(Oc2ccc(CN3CCC(CC4CC4)(C(=O)NCc4cc(C(F)(F)F)cc(C(F)(F)F)c4)CC3)cn2)cc1 [Example 67, N-(3,5-Bis(trifluoromethyl)benzyl)-1-((6-(4-cyanophenoxy)pyridin-3-yl)methyl)-4-(cyclopropylmethyl)piperidine-4-carboxamide] | 200 to 1000
3 | O=C(NCc1cc(C(F)(F)F)cc(C(F)(F)F)c1)C1(Cc2ccncc2)CCN(CC2CCOCC2)CC1 [Example 13, N-(3,5-Bis(trifluoromethyl)benzyl)-4-(pyridin-4-ylmethyl)-1-((tetrahydro-2H-pyran-4-yl)methyl)piperidine-4-carboxamide] | > 1000
4 | COCC1(C(=O)NCc2cc(C(F)(F)F)cc(C(F)(F)F)c2)CCN(CC2CCOCC2)CC1 [Example 11, N-(3,5-Bis(trifluoromethyl)benzyl)-1-((tetrahydro-2H-pyran-4-yl)methyl)-4-(methoxymethyl)piperidine-4-carboxamide] | > 1000
5 | CC(C)CC1(C(=O)NCc2cc(C(F)(F)F)cc(C(F)(F)F)c2)CCN(Cc2ccc3c(c2)OCO3)CC1 [Example 21, 1-(Benzo[d][1,3]dioxol-5-ylmethyl)-N-(3,5-bis(trifluoromethyl)benzyl)-4-isobutylpiperidine-4-carboxamide] | 200 to 1000
6 | O=C(NCCN1CCCC1)c1cc(CN2CCC(CC3CC3)(C(=O)NCc3cc(C(F)(F)F)cc(C(F)(F)F)c3)CC2)ccc1F [Example 59, N-(3,5-Bis(trifluoromethyl)benzyl)-4-(cyclopropylmethyl)-1-(4-fluoro-3-(2-(pyrrolidin-1-yl)ethylcarbamoyl)benzyl)piperidine-4-carboxamide] | > 1000
7 | CC(C)CC1(C(=O)NCc2cc(C(F)(F)F)cc(C(F)(F)F)c2)CCN(c2ccccn2)CC1 [Example 19, N-(3,5-Bis(trifluoromethyl)benzyl)-4-isobutyl-1-(pyridin-2-yl)piperidine-4-carboxamide] | > 1000
8 | O=C(O)c1cc(CN2CCC(CC3CC3)(C(=O)NCc3cc(C(F)(F)F)cc(C(F)(F)F)c3)C2)ccc1F (stereo not drawn) [Example 79, 5-((3-(3,5-Bis(trifluoromethyl)benzylcarbamoyl)-3-(cyclopropylmethyl)pyrrolidin-1-yl)methyl)-2-fluorobenzoic acid] | 200 to 1000
9 | O=C(NCc1cc(C(F)(F)F)cc(C(F)(F)F)c1)C1(CC2CCOCC2)CCN(Cc2ccc3c(c2)OCO3)CC1 [Example 27, 1-(Benzo[d][1,3]dioxol-5-ylmethyl)-N-(3,5-bis(trifluoromethyl)benzyl)-4-((tetrahydro-2H-pyran-4-yl)methyl)piperidine-4-carboxamide] | > 1000
10 | CC(C)CC1(C(=O)NCc2cc(C(F)(F)F)cc(C(F)(F)F)c2)CCN(CC2CCOCC2)CC1 [Example 12, N-(3,5-Bis(trifluoromethyl)benzyl)-4-isobutyl-1-((tetrahydro-2H-pyran-4-yl)methyl)piperidine-4-carboxamide] | > 1000
11 | CC(C)(CN1CCC(CC2CC2)(C(=O)NCc2cc(C(F)(F)F)cc(C(F)(F)F)c2)CC1)N1CCOCC1 [Example 69, N-(3,5-Bis(trifluoromethyl)benzyl)-4-(cyclopropylmethyl)-1-(2-methyl-2-morpholinopropyl)piperidine-4-carboxamide] | 200 to 1000
12 | O=C(NCc1cc(C(F)(F)F)cc(C(F)(F)F)c1)C1(CC2CC2)CCN(Cc2ccc3c(c2)OC(F)(F)O3)CC1 [Example 50, N-(3,5-Bis(trifluoromethyl)benzyl)-4-(cyclopropylmethyl)-1-((2,2-difluorobenzo[d][1,3]dioxol-5-yl)methyl)piperidine-4-carboxamide] | < 200
13 | COc1ccc(CN2CCC(CC(C)C)(C(=O)NCc3cc(C(F)(F)F)cc(C(F)(F)F)c3)CC2)cc1O [Example 30, N-(3,5-Bis(trifluoromethyl)benzyl)-1-(3-hydroxy-4-methoxybenzyl)-4-isobutylpiperidine-4-carboxamide] | < 200
14 | CC(C)CC1(C(=O)NCc2cc(C(F)(F)F)cc(C(F)(F)F)c2)CCN(C2CCC(O)(c3ccc4c(c3)OCO4)CC2)CC1 (stereo not drawn) [Example 26, 1-(4-(Benzo[d][1,3]dioxol-5-yl)-4-hydroxycyclohexyl)-N-(3,5-bis(trifluoromethyl)benzyl)-4-isobutylpiperidine-4-carboxamide] | 200 to 1000
15 | COc1ccc(CN2CCC(CC3CC3)(C(=O)NCc3cc(C(F)(F)F)cc(C(F)(F)F)c3)C2)cc1F (stereo not drawn) [Example 80, N-(3,5-Bis(trifluoromethyl)benzyl)-3-(cyclopropylmethyl)-1-(3-fluoro-4-methoxybenzyl)pyrrolidine-3-carboxamide] | 200 to 1000
16 | CC(C)CC1(C(=O)NCc2cc(C(F)(F)F)cc(C(F)(F)F)c2)CCN(CC(=O)N2CCS(=O)(=O)CC2)CC1 [Example 53, N-(3,5-Bis(trifluoromethyl)benzyl)-4-isobutyl-1-(2-oxo-2-sulphonylmorpholinoethyl)piperidine-4-carboxamide] | > 1000
17 | CC(C)CC1(C(=O)NCc2cc(C(F)(F)F)cc(C(F)(F)F)c2)CCN(CCN2CCCCC2)CC1 [Example 18, N-(3,5-Bis(trifluoromethyl)benzyl)-4-isobutyl-1-(2-(piperidin-1-yl)ethyl)piperidine-4-carboxamide] | > 1000
18 | CC(C)CC1(C(=O)N[C@@H](C)c2cc(C(F)(F)F)cc(C(F)(F)F)c2)CCN(Cc2ccc3c(c2)OCO3)CC1 [Example 45, (S)-1-(benzo[d][1,3]dioxol-5-ylmethyl)-N-(1-(3,5-bis(trifluoromethyl)phenyl)ethyl)-4-isobutylpiperidine-4-carboxamide] | > 1000
19 | CC(C)CC1(C(=O)N2CCN(c3cccc(C(F)(F)F)c3)CC2)CCN(Cc2ccc3c(c2)OCO3)CC1 [Example 40, (1-(Benzo[d][1,3]dioxol-5-ylmethyl)-4-isobutylpiperidin-4-yl)(4-(3-(trifluoromethyl)phenyl)piperazin-1-yl)methanone] | > 1000
20 | O=C(NCc1cc(C(F)(F)F)cc(C(F)(F)F)c1)C1(CC2CC2)CCN(CC2CCOCC2)C1 (stereo not drawn) [Example 81, N-(3,5-Bis(trifluoromethyl)benzyl)-3-(cyclopropylmethyl)-1-((tetrahydro-2H-pyran-4-yl)methyl)pyrrolidine-3-carboxamide] | < 200
21 | CCS(=O)(=O)NC(=O)c1cc(CN2CCC(CC3CC3)(C(=O)NCc3cc(C(F)(F)F)cc(C(F)(F)F)c3)CC2)ccc1F [Example 64, N-(3,5-Bis(trifluoromethyl)benzyl)-4-(cyclopropylmethyl)-1-(3-(ethylsulfonylcarbamoyl)-4-fluorobenzyl)piperidine-4-carboxamide] | 200 to 1000
